Measured values from ChEMBL document CHEMBL3885881, “DrugMatrix”.

Organism: Rattus norvegicus
Experiment: DrugMatrix - Regimen: Daily Repeat
Format: toxicity, organism-based, Sprague-Dawley
Design: regimen Daily Repeat, gender Male, age 6-8 weeks
Settings: in vivo, po, route oral GAVAGE, […]; for ABSOLUTE BASOPHIL / ABSOLUTE EOSINOPHIL / ABSOLUTE LYMPHOCYTE / ABSOLUTE MONOCYTE / ABSOLUTE SEGMENTED NEUTROPHIL / BASOPHIL / EOSINOPHIL / ERYTHROCYTE COUNT / HEMATOCRIT / HEMOGLOBIN / LEUKOCYTE COUNT / LYMPHOCYTE / MEAN CORPUSCULAR HEMOGLOBIN / MEAN CORPUSCULAR HEMOGLOBIN CONCENTRATION / MEAN CORPUSCULAR VOLUME / MONOCYTE / NEUTROPHIL / NUCLEATED RED BLOOD CELLS / PLATELET COUNT: tissue Blood; for ALANINE AMINOTRANSFERASE / ALBUMIN / ALKALINE PHOSPHATASE / ASPARTATE AMINOTRANSFERASE / BLOOD UREA NITROGEN / CARBON DIOXIDE / CHLORIDE / CHOLESTEROL / CREATINE PHOSPHOKINASE / CREATININE / GLUCOSE / LACTATE DEHYDROGENASE / LIPASE / PHOSPHORUS / POTASSIUM / SODIUM / TOTAL BILIRUBIN / TOTAL PROTEIN / URIC ACID: tissue Plasma
[1] = 0 mg/kg, 72 h, dose level Control, time 3 day
[2] = 0 mg/kg, 120 h, dose level Control, time 5 day
[3] = 100 mg/kg, 72 h, dose level Low, time 3 day

SMILES: CCn1cc(C(=O)O)c(=O)c2cc(F)c(N3CCNCC3)nc21 [ENOXACIN]
- ABSOLUTE BASOPHIL [1]: 0 CELLS/uL
- ABSOLUTE EOSINOPHIL [1]: 104.17 CELLS/uL
- ABSOLUTE LYMPHOCYTE [1]: 14547 CELLS/uL
- ABSOLUTE MONOCYTE [1]: 292 CELLS/uL
- ABSOLUTE SEGMENTED NEUTROPHIL [1]: 1640.17 CELLS/uL
- BASOPHIL [1]: 0%
- EOSINOPHIL [1]: 0.67%
- ERYTHROCYTE COUNT [1]: 5.35 x10E6/uL
- HEMATOCRIT [1]: 33.67%
- HEMOGLOBIN [1]: 13.38 G/DL
- LEUKOCYTE COUNT [1]: 16.58 x10E3/uL
- LYMPHOCYTE [1]: 87.5%
- MEAN CORPUSCULAR HEMOGLOBIN [1]: 25.05 pg
- MEAN CORPUSCULAR HEMOGLOBIN CONCENTRATION [1]: 39.78 G/DL
- MEAN CORPUSCULAR VOLUME [1]: 62.97 fL
- MONOCYTE [1]: 1.83%
- NEUTROPHIL [1]: 10%
- NUCLEATED RED BLOOD CELLS [1]: 0 /100WBC
- PLATELET COUNT [1]: 1274.5 x10E3/uL
- ALANINE AMINOTRANSFERASE [1]: 76.83 u/L
- ALBUMIN [1]: 3.97 G/DL
- ALKALINE PHOSPHATASE [1]: 347 u/L
- ASPARTATE AMINOTRANSFERASE [1]: 97.17 u/L
- BLOOD UREA NITROGEN [1]: 14.33 mg/dL
- CARBON DIOXIDE [1]: 25.5 mmol/L
- CHLORIDE [1]: 100.33 MEQ/L
- CHOLESTEROL [1]: 68.67 mg/dL
- CREATINE PHOSPHOKINASE [1]: 659.17 u/L
- CREATININE [1]: 0.32 mg/dL
- GLUCOSE [1]: 160.67 mg/dL
- LACTATE DEHYDROGENASE [1]: 271.5 u/L
- LIPASE [1]: 11.67 u/L
- PHOSPHORUS [1]: 10.65 mg/dL
- POTASSIUM [1]: 5.95 MEQ/L
- SODIUM [1]: 139.65 MEQ/L
- TOTAL BILIRUBIN [1]: 0.2 mg/dL
- TOTAL PROTEIN [1]: 5.72 G/DL
- URIC ACID [1]: 1.37 mg/dL
- ABSOLUTE BASOPHIL [2]: 0 CELLS/uL
- ABSOLUTE EOSINOPHIL [2]: 331.5 CELLS/uL
- ABSOLUTE LYMPHOCYTE [2]: 15021.67 CELLS/uL
- ABSOLUTE MONOCYTE [2]: 376.5 CELLS/uL
- ABSOLUTE SEGMENTED NEUTROPHIL [2]: 3070.33 CELLS/uL
- BASOPHIL [2]: 0%
- EOSINOPHIL [2]: 1.83%
- ERYTHROCYTE COUNT [2]: 5.24 x10E6/uL
- HEMATOCRIT [2]: 33.22%
- HEMOGLOBIN [2]: 13.2 G/DL
- LEUKOCYTE COUNT [2]: 18.8 x10E3/uL
- LYMPHOCYTE [2]: 79.67%
- MEAN CORPUSCULAR HEMOGLOBIN [2]: 25.17 pg
- MEAN CORPUSCULAR HEMOGLOBIN CONCENTRATION [2]: 39.73 G/DL
- MEAN CORPUSCULAR VOLUME [2]: 63.38 fL
- MONOCYTE [2]: 2%
- NEUTROPHIL [2]: 16.5%
- NUCLEATED RED BLOOD CELLS [2]: 0 /100WBC
- PLATELET COUNT [2]: 1142.67 x10E3/uL
- ALANINE AMINOTRANSFERASE [2]: 52.5 u/L
- ALBUMIN [2]: 3.9 G/DL
- ALKALINE PHOSPHATASE [2]: 284.5 u/L
- ASPARTATE AMINOTRANSFERASE [2]: 81.33 u/L
- BLOOD UREA NITROGEN [2]: 16 mg/dL
- CARBON DIOXIDE [2]: 25.33 mmol/L
- CHLORIDE [2]: 99.5 MEQ/L
- CHOLESTEROL [2]: 74.83 mg/dL
- CREATINE PHOSPHOKINASE [2]: 448.33 u/L
- CREATININE [2]: 0.37 mg/dL
- GLUCOSE [2]: 164.17 mg/dL
- LACTATE DEHYDROGENASE [2]: 290.67 u/L
- LIPASE [2]: 6.83 u/L
- PHOSPHORUS [2]: 11.5 mg/dL
- POTASSIUM [2]: 6.28 MEQ/L
- SODIUM [2]: 139.5 MEQ/L
- TOTAL BILIRUBIN [2]: 0.13 mg/dL
- TOTAL PROTEIN [2]: 5.55 G/DL
- URIC ACID [2]: 1.12 mg/dL
- ABSOLUTE BASOPHIL [3]: 0 CELLS/uL
- ABSOLUTE EOSINOPHIL [3]: 0 CELLS/uL
- ABSOLUTE LYMPHOCYTE [3]: 5797 CELLS/uL
- ABSOLUTE MONOCYTE [3]: 86.67 CELLS/uL
- ABSOLUTE SEGMENTED NEUTROPHIL [3]: 549.67 CELLS/uL
- BASOPHIL [3]: 0%
- EOSINOPHIL [3]: 0%
- ERYTHROCYTE COUNT [3]: 5.41 x10E6/uL
- HEMATOCRIT [3]: 34.57%
- HEMOGLOBIN [3]: 13.57 G/DL
- LEUKOCYTE COUNT [3]: 6.43 x10E3/uL
- LYMPHOCYTE [3]: 90%
- MEAN CORPUSCULAR HEMOGLOBIN [3]: 25.13 pg
- MEAN CORPUSCULAR HEMOGLOBIN CONCENTRATION [3]: 39.27 G/DL
- MEAN CORPUSCULAR VOLUME [3]: 64.03 fL
- MONOCYTE [3]: 1.33%
- NEUTROPHIL [3]: 8.67%
- NUCLEATED RED BLOOD CELLS [3]: 0 /100WBC
- PLATELET COUNT [3]: 1201 x10E3/uL
- ALANINE AMINOTRANSFERASE [3]: 52.33 u/L
- ALBUMIN [3]: 3.9 G/DL
- ALKALINE PHOSPHATASE [3]: 346.33 u/L
- ASPARTATE AMINOTRANSFERASE [3]: 78 u/L
- BLOOD UREA NITROGEN [3]: 14 mg/dL
- CARBON DIOXIDE [3]: 24.67 mmol/L
- CHLORIDE [3]: 103 MEQ/L
- CHOLESTEROL [3]: 70.33 mg/dL
- CREATINE PHOSPHOKINASE [3]: 221.67 u/L
- CREATININE [3]: 0.12 mg/dL
- GLUCOSE [3]: 172.67 mg/dL
- LACTATE DEHYDROGENASE [3]: 139.33 u/L
- LIPASE [3]: 10 u/L
- PHOSPHORUS [3]: 11.1 mg/dL
- POTASSIUM [3]: 5.8 MEQ/L
- SODIUM [3]: 142.37 MEQ/L
- TOTAL BILIRUBIN [3]: 0.13 mg/dL
- TOTAL PROTEIN [3]: 5.57 G/DL
- URIC ACID [3]: 1.63 mg/dL
